According to patent US8010296B2, “Apparatus and method for removing non-discriminatory indices of an indexed dataset” (Drexel University, priority 2002, dated 2011):

System: rat liver
Conditions: treated rats, liver samples; selection by visual inspection and ALT measurement
Procedure: Forty-eight polypeptide spectra were prepared from rat liver samples under four toxicological conditions (G=4).
While it was desirable that samples from each group be completely separated from those of other groups, it was especially important that samples from Group 4 (high toxicity) were separated from the others.

| Structure (SMILES) | Toxicity |
| --- | --- |
| ClC(Cl)(Cl)Cl [Carbon Tetrachloride (CCl4), Carbon Tetrachloride] | Mild |
| S=C=Nc1cccc2ccccc12 [Alpha-naphthyl Isothiocyanate (ANIT), Alpha-naphthyl Isothiocyanate] | Mild |
